Source: US5496452A, “Substrate regenerating biosensor” (priority 1990, dated 1996)

Experiments:
[1] = Redox potential (Ep1/2) of ferrocene derivatives; type: physicochemical; conditions: ferrocene derivative 0.5 mM; potentials quoted vs SCE
From the text: A four electrode analogue potentiostat (not shown) which is optionally computer controlled is used to control the potentials at the working electrodes (2) and (3). The disc electrode (2) is connected to a triangular wave generator (not shown) for potential sweeps and the ring electrode (3) is connected to a constant DC voltage source. The electrode rotation is controlled by a Ursar Scientific rotator. All potentials are quoted with respect to a saturated calomel electrode (SCE) with a 1 cm^2 platinum gauze serving as the counter electrode.
(§1) Several ferrocenes shown in Table 1 were tested for their ability to act as mediators for HRP reduction.

[2] = target: T1, horseradish peroxidase (HRP) (Armoracia rusticana, UniProt P00433); assay: Ferrocenes as mediators for HRP reduction: ring current at rotating ring disc electrode; type: biochemical; conditions: ferrocene derivative 0.5 mM, HRP 2.5 μM, disc potential -1.2V; for Relative Current: relative to hydroxymethyl ferrocene = 100%
T1 construct: purchased Biozyme
T1 sequence (P00433 31-353): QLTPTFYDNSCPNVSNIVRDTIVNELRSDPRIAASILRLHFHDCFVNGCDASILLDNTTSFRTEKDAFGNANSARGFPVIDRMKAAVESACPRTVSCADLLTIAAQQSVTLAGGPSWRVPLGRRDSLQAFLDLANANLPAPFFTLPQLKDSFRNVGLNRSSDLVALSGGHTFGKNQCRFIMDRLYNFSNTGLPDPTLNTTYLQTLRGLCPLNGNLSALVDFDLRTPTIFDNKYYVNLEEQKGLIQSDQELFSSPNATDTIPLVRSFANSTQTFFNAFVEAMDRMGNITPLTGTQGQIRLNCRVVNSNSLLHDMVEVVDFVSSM
From the text: The electrocatalytic activity of HRP as shown in FIGS. 1 and 2 was typically assessed by immersing the rotating ring disc electrode in a buffered solution containing peroxidase and hydroxymethyl ferrocene mediator. The electrode was rotated at a constant speed to control the transport of material to the disc electrode and subsequently out to the ring. A cathodic potential sweep was applied to the glassy carbon disc at 0.1V/S. The platinum ring was held at constant potential of 0V and the current at the ring as a function of the disc potential was measured. Before determination of the peroxidase generated ring current, following electrode immersion, the ring current (background current) was allowed to stabilize (about 5 min). […] The catalytic current was defined as the net reductive current occurring at a disc potential of 0 volts.
The actual profile of the reduction current seen at the ring electrode is a function of the concentrations of the enzyme and substrates, as well as the rotation rate of the electrode, the sweep rate at the disc and the potential of the ring. The magnitude of this current also depends on the fraction of enzymatically generated ferricinium (oxidized ferrocene) which actually reaches the ring.
as §1

## O=C([O-])[c-]1cccc1.O=C([O-])[c-]1cccc1.[Fe+2] [1,1' Dicarboxylate Ferrocene]
[1]
  Ep1/2 (redox potential): 420 mv
[2]
  Current (ring current): 0.10 mA
  Relative Current: 3%

## CN(C)Cc1ccc[cH-]1.[Fe+2].c1cc[cH-]c1 [Dimethylaminomethyl Ferrocene]
[1]
  Ep1/2 (redox potential): 490 mv
[2]
  Current (ring current): 0.22 mA
  Relative Current: 6%

## OC[c-]1cccc1.[Fe+2].c1cc[cH-]c1 [Hydroxymethyl Ferrocene]
[1]
  Ep1/2 (redox potential): 210 mv
[2]
  Current (ring current): 3.8 mA
  Relative Current: 100%

## O=C([O-])[c-]1cccc1.[Fe+2].c1cc[cH-]c1 [Monocarboxylate Ferrocene]
[1]
  Ep1/2 (redox potential): 295 mv
[2]
  Current (ring current): 0.64 mA
  Relative Current: 17%
